pIC50: −log10 of the molar value. Where two headings read alike, the source gives them in different places.
Target: PDE-5 (UniProt O76074)
Experiment: In vitro PDE inhibitory activity against PDE5 (batch method or scintillation proximity assay)
Type: biochemical, human
Details: representative compounds

Compound	pIC50 (read-out: IC50)	pIC50
CCOCCn1nc(C(=O)O)c2nc(NC(C)C)nc(Nc3cc(C)ccn3)c21 [Example 54]	8.69	
CCOCCn1nc(C(=O)O)c2nc(N(C)CCOC)nc(Nc3cc(C)ccn3)c21 [Example 17]	8.53	
Cc1ccnc(Nc2nc(N(C)C(C)C)nc3c(C(=O)O)nn(CCOCC(F)(F)F)c23)c1 [Example 126, 5-[Isopropyl(methyl)amino]-7-[(4-methylpyridin-2-yl)amino]-1-[2-(2,2,2-trifluoroethoxy)ethyl]-1H-pyrazolo[4,3-d]pyrimidine-3-carboxylic acid]	8.52	
CCOCCn1nc(C(=O)OC)c2nc(N(CC)CC)nc(Nc3ccc(F)c(C)c3)c21 [Example 117, Methyl 5-(diethylamino)-1-(2-ethoxyethyl)-7-[(4-fluoro-3-methylphenyl)amino]-1H-pyrazolo[4,3-d]pyrimidine-3-carboxylate]	10.60	
COC(C)CCn1nc(C(=O)O)c2nc(N(C)C(C)C)nc(Nc3cc(C)ccn3)c21 (centres unmarked) [Example 107]		9.51
CCOCCn1nc(C(=O)O)c2nc(N(C)C(C)C)nc(Nc3cc(F)cc(F)c3)c21 [Example 91]	8.30	
CCOCCn1nc(C(=O)OCCN(C)C)c2nc(N(C)C)nc(Nc3cc(C)ccn3)c21 [Example 10, 2-(Dimethylamino)ethyl 5-dimethylamino-1-(2-ethoxyethyl)-7-(4-methylpyridin-2-ylamino)-1H-pyrazolo[4,3-d]pyrimidine-3-carboxylate]	8.73	
CCOCCn1nc(C(=O)OC)c2nc(N(C)C(C)C)nc(Nc3cc(C)ccn3)c21 [Example 1, Methyl 1-(2-ethoxyethyl)-5-(N-isopropyl-N-methylamino)-7-(4-methylpyridin-2-ylamino)-1H-pyrazolo[4,3-d]pyrimidine-3-carboxylate]	10.12	
CCOCCn1nc(C(=O)O)c2nc(N3CC[C@H](OC)C3)nc(Nc3cc(C)ccn3)c21 [Example 12]	7.83	
CCOCCn1nc(C(=O)OCC)c2nc(N3CCN[C@H](C)C3)nc(Nc3cc(C)ccn3)c21 [Example 8]	8.42	
CCOCCn1nc(C(=O)O)c2nc(N(C)C3CCC3)nc(N[C@@H]3CCOC3)c21 [Example 69]		7.00
CCOCCn1nc(C(=O)O)c2nc(N(C)C(C)C)nc(Nc3cc(C)ncn3)c21 [Example 123]	9.20	
CCOCCn1nc(C(=O)O)c2nc(N(C)CC)nc(Nc3cccc(C)n3)c21 [Example 38]	7.78	
CCOCCn1nc(C(=O)O)c2nc(N(C)C)nc(Nc3cc(CC)ccn3)c21 [Example 37]	7.62	
CCOCCn1nc(C(=O)O)c2nc(N(C)C(C)C)nc(Nc3cccc(C)c3)c21 [Example 94]	9.52	
CCOCCn1nc(C(=O)O)c2nc(N(CC)CC)nc(Nc3ccc(=O)n(C)c3)c21 [Example 125, 5-(Diethylamino)-1-(2-ethoxyethyl)-7-[(1-methyl-6-oxo-1,6-dihydropyridin-3-yl)amino]-1H-pyrazolo[4,3-]pyrimidine-3-carboxylic acid]	8.82	
CCOCCn1nc(C(=O)OCCN(C)C)c2nc(N(C)C(C)C)nc(Nc3cc(C)ccn3)c21 [Example 147, 2-(Dimethylamino)ethyl 1-(2-ethoxyethyl)-5-[isopropyl(methyl)amino]-7-[(4-methylpyridin-2-yl)amino]-1H-pyrazolo[4,3-d]pyrimidine-3-carboxylate]	9.85	

— patent publication US7572799B2, “Pyrazolo[4,3-d]pyrimidines as Phosphodiesterase Inhibitors” (Pfizer Inc, priority 2003, dated 2009)
